Data from ChEMBL document CHEMBL1145522, “Recognition of trimethyllysine by a chromodomain is not driven by the hydrophobic effect” (Proc Natl Acad Sci U S A, 2007).

Experiment: Binding affinity to Drosophila HP1 chromodomain by fluorescence polarization assay

**Q.** For `C[C@H](N)C(=O)N[C@@H](CCCNC(=N)N)C(=O)N[C@H](C(=O)N[C@@H](CCCCN)C(=O)N[C@@H](CCC(N)=O)C(=O)N[C@H](C(=O)N[C@@H](C)C(=O)N[C@@H](CCCNC(=N)N)C(=O)N[C@@H](CCCCN)C(=O)N[C@@H](CO)C(=O)N[C@H](C(=O)NCC(=O)NCC(=O)N[C@@H](CCCCN)C(=O)N[C@@H](C)C(=O)N[C@@H](Cc1ccc(O)cc1)C(=O)O)[C@@H](C)O)[C@@H](C)O)[C@@H](C)O`, which Kd is on record?
**A.** Its Kd is over 1000 µM.
